≈ marks a conversion by molar mass, not a printed value. Like-named read-outs stand apart in the source and are kept apart here.
Columns and labels:
Serratia marcescens = assay: Checkerboard broth dilution synergy study (mic); assay type: cell-based; conditions: for MIC: Serratia marcescens, read-out: mic, drug alone
E. cloacae = assay: Checkerboard broth dilution synergy study (mic); assay type: cell-based; conditions: for MIC: Enterobacter cloacae, read-out: mic, drug alone
Klebsiella pneumoniae = assay: Checkerboard broth dilution synergy study (mic); assay type: cell-based; conditions: for MIC: Klebsiella pneumoniae, read-out: mic, drug alone
Proteus mirabilis = assay: Checkerboard broth dilution synergy study (mic); assay type: cell-based; conditions: Table II, strain Allen
Proteus vulgaris = assay: Checkerboard broth dilution synergy study (mic); assay type: cell-based; conditions: Table II; for MIC: Proteus vulgaris, read-out: mic, drug alone
E. coli = assay: Checkerboard broth dilution synergy study (mic); assay type: cell-based; conditions: Table II; for MIC: Escherichia coli, read-out: mic, drug alone
Pseudomonas maltophilia = assay: Checkerboard broth dilution synergy study (mic); assay type: cell-based; conditions: for MIC: Stenotrophomonas maltophilia, read-out: mic, drug alone
Acinetobacter sp. = assay: Checkerboard broth dilution synergy study (mic); assay type: cell-based; conditions: for MIC: Acinetobacter, read-out: mic, drug alone
Pseudomonas pseudomallei = assay: microbe, parasite or virus in culture; assay type: cell-based
clinical = conditions: in vivo, iv, mean serum concentration

COC1(NC(=O)C(C(=O)O)c2ccc(O)cc2)C(=O)N2C(C(=O)O)=C(CSc3nnnn3C)COC21 (centres unmarked) [1-oxa compound I, moxalactam]
MIC (Serratia marcescens; Table II, strain 100): 0.25 µg/mL | MIC (Serratia marcescens; Table II, strain 302-2): 1 µg/mL | MIC (Serratia marcescens; Table II, strain 796): 8 µg/mL | MIC (Serratia marcescens; Table II, strain 14142): 1 µg/mL | MIC (Serratia marcescens; Table II, strain Townsend): 4 µg/mL | MIC (Serratia marcescens; Table III, isolate 463-2): 8 µg/mL | MIC (Serratia marcescens; Table III, isolate 606): 4 µg/mL | MIC (Serratia marcescens; Table III, isolate 1414): 1 µg/mL | MIC (Serratia marcescens; Table III, isolate B377): 8 µg/mL | MIC (Serratia marcescens; Table III, isolate Ziegler): 4 µg/mL | mic of each drug in combination I + P (Serratia marcescens; Table II, strain 100): 0.12 µg/mL | mic of each drug in combination I + T (Serratia marcescens; Table II, strain 100): 0.12 µg/mL | mic of each drug in combination I + P (Serratia marcescens; Table II, strain 302-2): 0.12 µg/mL | mic of each drug in combination I + T (Serratia marcescens; Table II, strain 302-2): 0.12 µg/mL | mic of each drug in combination I + P (Serratia marcescens; Table II, strain 796): 2 µg/mL | mic of each drug in combination I + T (Serratia marcescens; Table II, strain 796): 2 µg/mL | mic of each drug in combination I + P (Serratia marcescens; Table II, strain 14142): 0.12 µg/mL | mic of each drug in combination I + T (Serratia marcescens; Table II, strain 14142): 0.25 µg/mL | mic of each drug in combination I + P (Serratia marcescens; Table II, strain Townsend): 2 µg/mL | mic of each drug in combination I + T (Serratia marcescens; Table II, strain Townsend): 1 µg/mL | mic of each drug in combination I + A (Serratia marcescens; Table III, isolate 463-2): < 0.06 µg/mL | mic of each drug in combination I + A (Serratia marcescens; Table III, isolate 606): 0.5 µg/mL | mic of each drug in combination I + A (Serratia marcescens; Table III, isolate 1414): 0.06 µg/mL | mic of each drug in combination I + A (Serratia marcescens; Table III, isolate B377): 0.12 µg/mL | mic of each drug in combination I + A (Serratia marcescens; Table III, isolate Ziegler): 0.06 µg/mL | MIC (E. cloacae; Table II, strain 1246): 0.25 µg/mL | MIC (E. cloacae; Table II, strain 1253): 4 µg/mL | MIC (E. cloacae; Table II, strain 1415): 0.12 µg/mL | MIC (E. cloacae; Table II, strain B293): 0.5 µg/mL | MIC (E. cloacae; Table III, isolate 228): 0.12 µg/mL | MIC (E. cloacae; Table III, isolate 1253): 4 µg/mL | MIC (E. cloacae; Table III, isolate 1296): 0.25 µg/mL | MIC (E. cloacae; Table III, isolate 1415): 0.12 µg/mL | MIC (E. cloacae; Table III, isolate McQuinn): 0.25 µg/mL | mic of each drug in combination I + T (E. cloacae; Table II, strain 1246): < 0.12 µg/mL | mic of each drug in combination I + P (E. cloacae; Table II, strain 1253): 2 µg/mL | mic of each drug in combination I + T (E. cloacae; Table II, strain 1253): 0.25 µg/mL | mic of each drug in combination I + T (E. cloacae; Table II, strain 1415): 0.12 µg/mL | mic of each drug in combination I + P (E. cloacae; Table II, strain B293): 0.25 µg/mL | mic of each drug in combination I + T (E. cloacae; Table II, strain B293): 0.12 µg/mL | mic of each drug in combination I + A (E. cloacae; Table III, isolate 228): < 0.06 µg/mL | mic of each drug in combination I + A (E. cloacae; Table III, isolate 1253): < 0.06 µg/mL | mic of each drug in combination I + A (E. cloacae; Table III, isolate 1296): 0.06 µg/mL | mic of each drug in combination I + A (E. cloacae; Table III, isolate 1415): 0.12 µg/mL | mic of each drug in combination I + A (E. cloacae; Table III, isolate McQuinn): 0.12 µg/mL | MIC (Klebsiella pneumoniae; Table II, strain 130): 0.5 µg/mL | MIC (Klebsiella pneumoniae; Table II, strain 214-1): 2 µg/mL | MIC (Klebsiella pneumoniae; Table II, strain 463): 2 µg/mL | MIC (Klebsiella pneumoniae; Table II, strain 512): 0.5 µg/mL | MIC (Klebsiella pneumoniae; Table II, strain 933): 0.25 µg/mL | MIC (Klebsiella pneumoniae; Table II, strain 1204-2): 2 µg/mL | MIC (Klebsiella pneumoniae; Table III, isolate 130): 0.5 µg/mL | MIC (Klebsiella pneumoniae; Table III, isolate 214-1): 2 µg/mL | MIC (Klebsiella pneumoniae; Table III, isolate 463): 2 µg/mL | MIC (Klebsiella pneumoniae; Table III, isolate 938): 0.25 µg/mL | MIC (Klebsiella pneumoniae; Table III, isolate 1231): 0.5 µg/mL | mic of each drug in combination I + T (Klebsiella pneumoniae; Table II, strain 130): < 0.012 µg/mL | mic of each drug in combination I + P (Klebsiella pneumoniae; Table II, strain 214-1): 0.5 µg/mL | mic of each drug in combination I + T (Klebsiella pneumoniae; Table II, strain 214-1): 0.012 µg/mL | mic of each drug in combination I + P (Klebsiella pneumoniae; Table II, strain 463): 2 µg/mL | mic of each drug in combination I + T (Klebsiella pneumoniae; Table II, strain 463): 0.012 µg/mL | mic of each drug in combination I + P (Klebsiella pneumoniae; Table II, strain 512): 0.5 µg/mL | mic of each drug in combination I + T (Klebsiella pneumoniae; Table II, strain 512): 0.012 µg/mL | mic of each drug in combination I + T (Klebsiella pneumoniae; Table II, strain 933): < 0.012 µg/mL | mic of each drug in combination I + P (Klebsiella pneumoniae; Table II, strain 1204-2): 0.5 µg/mL | mic of each drug in combination I + T (Klebsiella pneumoniae; Table II, strain 1204-2): 0.012 µg/mL | mic of each drug in combination I + A (Klebsiella pneumoniae; Table III, isolate 130): 0.5 µg/mL | mic of each drug in combination I + A (Klebsiella pneumoniae; Table III, isolate 214-1): < 0.06 µg/mL | mic of each drug in combination I + A (Klebsiella pneumoniae; Table III, isolate 463): 2 µg/mL | mic of each drug in combination I + A (Klebsiella pneumoniae; Table III, isolate 938): < 0.06 µg/mL | mic of each drug in combination I + A (Klebsiella pneumoniae; Table III, isolate 1231): 0.06 µg/mL | MIC (Proteus mirabilis; Proteus mirabilis, read-out: mic, drug alone): 0.06 µg/mL | mic of each drug in combination I + T (Proteus mirabilis): < 0.12 µg/mL | MIC (Proteus vulgaris; strain 363): 0.12 µg/mL | MIC (Proteus vulgaris; strain Shide): 0.06 µg/mL | mic of each drug in combination I + T (Proteus vulgaris; strain 363): < 0.12 µg/mL | mic of each drug in combination I + T (Proteus vulgaris; strain Shide): < 0.12 µg/mL | MIC (E. coli; strain 46-2): 0.03 µg/mL | MIC (E. coli; strain 77-3): 0.03 µg/mL | MIC (E. coli; strain 136-3): 0.06 µg/mL | MIC (E. coli; strain 1260): 0.03 µg/mL | MIC (E. coli; strain 1262): 0.03 µg/mL | MIC (E. coli; strain Briley): 0.12 µg/mL | MIC (E. coli; strain Dill): 0.25 µg/mL | mic of each drug in combination I + P (E. coli; strain 46-2): < 0.12 µg/mL | mic of each drug in combination I + T (E. coli; strain 46-2): < 0.12 µg/mL | mic of each drug in combination I + T (E. coli; strain 77-3): < 0.12 µg/mL | mic of each drug in combination I + T (E. coli; strain 136-3): < 0.12 µg/mL | mic of each drug in combination I + P (E. coli; strain 1253): 0.5 µg/mL | mic of each drug in combination I + T (E. coli; strain 1253): < 0.12 µg/mL | mic of each drug in combination I + T (E. coli; strain 1260): < 0.12 µg/mL | mic of each drug in combination I + P (E. coli; strain 1262): < 0.12 µg/mL | mic of each drug in combination I + T (E. coli; strain 1262): < 0.12 µg/mL | mic of each drug in combination I + P (E. coli; strain 1415): < 0.12 µg/mL | mic of each drug in combination I + T (E. coli; strain 1415): < 0.12 µg/mL | mic of each drug in combination I + P (E. coli; strain Briley): < 0.12 µg/mL | mic of each drug in combination I + T (E. coli; strain Briley): < 0.12 µg/mL | mic of each drug in combination I + T (E. coli; strain Dill): < 0.12 µg/mL | MIC (Pseudomonas maltophilia; Table II, strain 10): 32 µg/mL | MIC (Pseudomonas maltophilia; Table II, strain 11): 4 µg/mL | MIC (Pseudomonas maltophilia; Table II, strain 505): 8 µg/mL | MIC (Pseudomonas maltophilia; Table III, isolate 10): 32 µg/mL | MIC (Pseudomonas maltophilia; Table III, isolate 505): 8 µg/mL | mic of each drug in combination I + T (Pseudomonas maltophilia; Table II, strain 10): 4 µg/mL | mic of each drug in combination I + T (Pseudomonas maltophilia; Table II, strain 11): 0.5 µg/mL | mic of each drug in combination I + T (Pseudomonas maltophilia; Table II, strain 505): 0.6 µg/mL | mic of each drug in combination I + A (Pseudomonas maltophilia; Table III, isolate 10): 8 µg/mL | mic of each drug in combination I + A (Pseudomonas maltophilia; Table III, isolate 505): 2 µg/mL | MIC (Acinetobacter sp.; Table II, strain 28-1): 16 µg/mL | MIC (Acinetobacter sp.; Table II, strain 28-2): 16 µg/mL | MIC (Acinetobacter sp.; Table II, strain 106): 8 µg/mL | MIC (Acinetobacter sp.; Table II, strain 107): 32 µg/mL | MIC (Acinetobacter sp.; Table II, strain 109): 16 µg/mL | MIC (Acinetobacter sp.; Table III, isolate 28-1): 16 µg/mL | MIC (Acinetobacter sp.; Table III, isolate 28-2): 16 µg/mL | MIC (Acinetobacter sp.; Table III, isolate 106): 8 µg/mL | MIC (Acinetobacter sp.; Table III, isolate 107): 32 µg/mL | MIC (Acinetobacter sp.; Table III, isolate 109): 16 µg/mL | mic of each drug in combination I + T (Acinetobacter sp.; Table II, strain 28-1): 0.6 µg/mL | mic of each drug in combination I + T (Acinetobacter sp.; Table II, strain 28-2): 2 µg/mL | mic of each drug in combination I + T (Acinetobacter sp.; Table II, strain 106): 0.6 µg/mL | mic of each drug in combination I + T (Acinetobacter sp.; Table II, strain 107): 2 µg/mL | mic of each drug in combination I + T (Acinetobacter sp.; Table II, strain 109): 2 µg/mL | mic of each drug in combination I + A (Acinetobacter sp.; Table III, isolate 28-1): 2 µg/mL | mic of each drug in combination I + A (Acinetobacter sp.; Table III, isolate 28-2): < 0.06 µg/mL | mic of each drug in combination I + A (Acinetobacter sp.; Table III, isolate 106): < 0.06 µg/mL | mic of each drug in combination I + A (Acinetobacter sp.; Table III, isolate 107): 8 µg/mL | mic of each drug in combination I + A (Acinetobacter sp.; Table III, isolate 109): 8 µg/mL | MIC (Pseudomonas pseudomallei; Burkholderia pseudomallei, read-out: mic, drug alone): 32 µg/mL (≈ 61.5 µM) | mic of each drug in combination I + A (Pseudomonas pseudomallei; Table III, isolate not named): 4 µg/mL | concentration at 11 h (clinical): 1200 ng/mL

— US4452778A, “Synergistic antibacterial compositions and method of treatment of infections caused by multiple antibiotic-resistant organisms” (Eli Lilly and Company, priority 1981, dated 1984)
